Key:
membrane-bound PR3 = molecular target: T1, membrane-bound PR3 (Homo sapiens, UniProt P24158); assay: Membrane-bound PR3 activity of neutrophils cultured with CM of SCP28 cells overexpressing CTSC; assay type: cell-based; conditions: Sivelestat 10 μM, Alvelestat 10 μM, CTSGi 20 μM, FIG. 7D
T1 construct: endogenous in cells; host or cells: human peripheral-blood neutrophils (whole-cell suspension)
T1 sequence (P24158 28-248): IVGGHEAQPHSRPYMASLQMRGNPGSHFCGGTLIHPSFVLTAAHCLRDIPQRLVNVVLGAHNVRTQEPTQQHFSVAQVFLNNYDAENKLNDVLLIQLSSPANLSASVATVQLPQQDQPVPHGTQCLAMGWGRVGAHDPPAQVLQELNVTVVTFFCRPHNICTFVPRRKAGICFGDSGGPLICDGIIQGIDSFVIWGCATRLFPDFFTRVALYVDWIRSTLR
Experimental: The procedure of enzyme activity assays were conducted as previously reported (Korkmaz et aL, “Neutrophil proteinase 3 and dipeptidyl peptidase I (cathepsin C) as pharmacological targets in granulomatosis with polyangiitis (Wegener granulomatosis),” Semin. Immunopathol. 35:411-421 (2008)). The PR3 or NE enzymatic activity was quantified by detecting the rate of hydrolysis of the PR3-specific substrate (Abz)-VADnorVADRQ-(EDDnp) or NE specific substrate (Abz)-APEEIMRRQ-(EDDnp) by cell suspension or free enzymes. To analyze membrane-bound PR3 activity, neutrophils were cultured in cancer cell CM or non-conditioned medium, and treated with DMSO or various inhibitors, including Sivelestat (10 μM), Alvelestat (10 μM) and CTSGi (20 μM) for 30-45 min at 37° C. Then, cells were suspended in activity buffer (5×10^6 per ml, PBS, 4 mM EGTA, pH 7.4) with 15 μM of the PR3-specific substrate, and the kinetic of hydrolysis was followed by measuring the fluorescence at λex=320 nm and λem=420 nm. For activation of PR3 in isolated plasma membrane fraction, recombinant human CTSC (1071-CY, R&D) was activated according to the manufacturer's instruction. […] The activity of free PR3 and NE were measured in the assay buffer (50 mM Tris, 750 mM NaCl, pH 7.4) with 15 μM specific substrates by recording the fluorescence at λex=320 nm and λem=420 nm. […]

murine neutrophils = assay: In vitro NET analysis of neutrophils cultured in 4T07 or 4T1 conditioned media; assay type: cell-based; conditions: Sivelestat 10 μM or DNase I 1 μg/ml; FIG. 8F
Experimental: To assess NET formation, neutrophils (2.5×10^5 cells) were seeded on coverslips coated with poly-L-lysine (P4707, Sigma) in 24-well plates for 30 min before adding 10% cancer cell CM, Sivelestat (10 μM), PMA (20 nM, Sigma), Cl-amidine (100 μM, Selleck) and/or DNase I (1 μg/ml). After 12 to 16 h at 37° C., neutrophils were fixed with 4% paraformaldehyde (PFA) for 10 min at room temperature, washed twice with PBS and permeabilized in 0.1% Triton X-100 for 5 min. […] NET area quantification was performed using the DANA method (Rebernick et al., “DNA area and NETosis analysis (DANA): a high-throughput method to quantify neutrophil extracellular traps in fluorescent microscope images,” Biol. Proced. Online 20:7 (2018)). Briefly, the areas of structures depicting NET morphology and positive for Ci-H3 or total H3 were counted as NETotic cell areas, and the NET area percentages were analyzed as NETotic cell areas divided by total DNA areas. The percentages of NETotic cells were analyzed as previously described ([…]). […] The percentage of NETotic cells was counted as the numbers of NETotic cells divided by the total cell numbers. […]

CC(C)(C)C(=O)Oc1ccc(S(=O)(=O)Nc2ccccc2C(=O)NCC(=O)O)cc1 [Silvelestat]
upregulated PR3 activity resulting from CTSC overexpression (membrane-bound PR3): significantly reduces
NET formation induced by CTSC (percentage area covered by NETs) (murine neutrophils): blocks the ability of CTSC to induce NET formation

From US12697328B2, “Methods for treating metastasis with cathepsin C inhibitors” (Shanghai Institute of Nutrition and Health, Chinese Academy …, priority 2020, dated 2026)
